± gives the uncertainty stated by the source.
Experiment: xn = mol fraction of the nth substance listed

c1ccccc1 + CCCC[n+]1ccn(C)c1.O=S(=O)([O-])C(F)(F)F
100 kPa, x1 = 1
Conditions | viscosity [mPa·s]
308.15 K | 0.527 ± 0.088
318.15 K | 0.466 ± 0.085

CO + CCCC[n+]1ccc(C)cc1.F[B-](F)(F)F
Conditions | viscosity [mPa·s]
298.15 K, 101 kPa, x1 = 1 | 0.538 ± 0.059

c1ccccc1 + CCCCCCCC[n+]1ccc2ccccc2c1.O=S(=O)([N-]S(=O)(=O)C(F)(F)F)C(F)(F)F
101 kPa, x1 = 1
Conditions | viscosity [mPa·s]
308.15 K | 0.53 ± 0.01
328.15 K | 0.42 ± 0.01

C[N+](C)(C)Cc1ccccc1.[Cl-] + O=C([O-])c1ccccc1O.[Na+] + O
viscosity [mPa·s], 100 kPa
Conditions | 298.15 K | 303.15 K | 308.15 K | 313.15 K | 318.15 K
x1 = 9.698e-05, x2 = 0.001545 | 0.924 ± 0.02 | 0.833 ± 0.018 | 0.75 ± 0.017 | 0.651 ± 0.015 | 0.564 ± 0.013
x1 = 9.701e-05, x2 = 0.00127 | 0.916 ± 0.02 | 0.827 ± 0.018 | 0.744 ± 0.017 | 0.648 ± 0.015 | 0.561 ± 0.013
x1 = 9.703e-05, x2 = 0.0009982 | 0.91 ± 0.02 | 0.821 ± 0.018 | 0.739 ± 0.016 | 0.642 ± 0.014 | 0.557 ± 0.013
x1 = 9.706e-05, x2 = 0.0007245 | 0.905 ± 0.02 | 0.816 ± 0.018 | 0.734 ± 0.016 | 0.637 ± 0.014 | 0.551 ± 0.013
x1 = 9.709e-05, x2 = 0.0004525 | 0.9 ± 0.02 | 0.811 ± 0.018 | 0.729 ± 0.016 | 0.633 ± 0.014 | 0.547 ± 0.013
x1 = 9.711e-05, x2 = 0.0001803 | 0.896 ± 0.02 | 0.807 ± 0.018 | 0.725 ± 0.016 | 0.629 ± 0.014 | 0.543 ± 0.012
x1 = 0.0002915, x2 = 0.001548 | 0.926 ± 0.02 | 0.836 ± 0.018 | 0.753 ± 0.017 | 0.648 ± 0.015 | 0.56 ± 0.013
x1 = 0.0002916, x2 = 0.001 | 0.915 ± 0.02 | 0.824 ± 0.018 | 0.742 ± 0.017 | 0.639 ± 0.014 | 0.552 ± 0.013
x1 = 0.0002916, x2 = 0.001272 | 0.921 ± 0.02 | 0.83 ± 0.018 | 0.747 ± 0.017 | 0.644 ± 0.015 | 0.556 ± 0.013
x1 = 0.0002917, x2 = 0.0007258 | 0.909 ± 0.02 | 0.819 ± 0.018 | 0.736 ± 0.016 | 0.635 ± 0.014 | 0.547 ± 0.013
x1 = 0.0002918, x2 = 0.0004533 | 0.903 ± 0.02 | 0.814 ± 0.018 | 0.732 ± 0.016 | 0.63 ± 0.014 | 0.544 ± 0.012
x1 = 0.0002919, x2 = 0.0001807 | 0.898 ± 0.02 | 0.809 ± 0.018 | 0.727 ± 0.016 | 0.625 ± 0.014 | 0.539 ± 0.012
x1 = 0.0004867, x2 = 0.001551 | 0.932 ± 0.02 | 0.843 ± 0.019 | 0.759 ± 0.017 | 0.664 ± 0.015 | 0.577 ± 0.013
x1 = 0.0004868, x2 = 0.001275 | 0.926 ± 0.02 | 0.836 ± 0.018 | 0.753 ± 0.017 | 0.659 ± 0.015 | 0.572 ± 0.013
x1 = 0.0004869, x2 = 0.001002 | 0.919 ± 0.02 | 0.831 ± 0.018 | 0.748 ± 0.017 | 0.654 ± 0.015 | 0.568 ± 0.013
x1 = 0.0004871, x2 = 0.0007272 | 0.914 ± 0.02 | 0.825 ± 0.018 | 0.743 ± 0.017 | 0.648 ± 0.015 | 0.563 ± 0.013
x1 = 0.0004872, x2 = 0.0004542 | 0.907 ± 0.02 | 0.82 ± 0.018 | 0.737 ± 0.016 | 0.644 ± 0.015 | 0.558 ± 0.013
x1 = 0.0004873, x2 = 0.000181 | 0.903 ± 0.02 | 0.815 ± 0.018 | 0.732 ± 0.016 | 0.64 ± 0.014 | 0.554 ± 0.013

CC(=O)[O-].CCCCC[N+](CCCCC)(CCCCC)CCCCC + CCCCCCCCCCCCOS(=O)(=O)[O-].[Na+] + O
viscosity [mPa·s], 100 kPa
Conditions | x2 = 1.81e-06, x1 = 0.0001802 | x2 = 3.62e-06, x1 = 0.0001802 | x2 = 5.42e-06, x1 = 0.0001802 | x2 = 7.23e-06, x1 = 0.0001802 | x2 = 9.04e-06, x1 = 0.0001802 | x2 = 1.085e-05, x1 = 0.0001802 | x2 = 1.266e-05, x1 = 0.0001802 | x2 = 1.446e-05, x1 = 0.0001802 | x2 = 1.627e-05, x1 = 0.0001802 | x2 = 1.808e-05, x1 = 0.0001802
293.15 K | 1.002 ± 0.029 | 1.003 ± 0.029 | 1.005 ± 0.029 | 1.005 ± 0.029 | 1.007 ± 0.029 | 1.007 ± 0.029 | 1.007 ± 0.029 | 1.007 ± 0.029 | 1.007 ± 0.029 | 1.008 ± 0.029
298.15 K | 0.89 ± 0.028 | 0.893 ± 0.028 | 0.894 ± 0.028 | 0.896 ± 0.028 | 0.898 ± 0.028 | 0.9 ± 0.028 | 0.902 ± 0.028 | 0.902 ± 0.028 | 0.904 ± 0.028 | 0.904 ± 0.028
303.15 K | 0.784 ± 0.028 | 0.786 ± 0.028 | 0.789 ± 0.028 | 0.792 ± 0.028 | 0.793 ± 0.028 | 0.796 ± 0.028 | 0.796 ± 0.028 | 0.796 ± 0.028 | 0.798 ± 0.028 | 0.796 ± 0.028
308.15 K | 0.701 ± 0.027 | 0.703 ± 0.027 | 0.704 ± 0.027 | 0.706 ± 0.027 | 0.707 ± 0.027 | 0.707 ± 0.027 | 0.708 ± 0.027 | 0.708 ± 0.027 | 0.709 ± 0.027 | 0.709 ± 0.027
313.15 K | 0.636 ± 0.027 | 0.638 ± 0.027 | 0.641 ± 0.027 | 0.643 ± 0.027 | 0.645 ± 0.027 | 0.646 ± 0.027 | 0.646 ± 0.027 | 0.647 ± 0.027 | 0.648 ± 0.027 | 0.648 ± 0.027
318.15 K | 0.587 ± 0.027 | 0.587 ± 0.027 | 0.589 ± 0.027 | 0.59 ± 0.027 | 0.591 ± 0.027 | 0.593 ± 0.027 | 0.593 ± 0.027 | 0.597 ± 0.027 | 0.598 ± 0.027 | 0.599 ± 0.027

CO + CCCC[n+]1ccn(C)c1.O=S(=O)([N-]S(=O)(=O)C(F)(F)F)C(F)(F)F
Conditions | viscosity [mPa·s]
298 K, 100 kPa, x2 = 0 | 0.534 ± 0.006

CO + CCCC[n+]1ccn(C)c1.F[B-](F)(F)F
101 kPa, x1 = 1
Conditions | viscosity [mPa·s]
303.15 K | 0.519 ± 0.008
333.15 K | 0.363 ± 0.006

CCC(O)CO (stereo unspecified) + CCCC[N+](C)(C)C.O=S(=O)([N-]S(=O)(=O)C(F)(F)F)C(F)(F)F
Conditions | viscosity [mPa·s]
328.15 K, 101 kPa, x1 = 1 | 10.3 ± 0.63

CC[n+]1ccccc1.[Cl-] + CCCC[n+]1ccccc1.[Cl-]
101 kPa
Conditions | viscosity [mPa·s]
388.1 K, x1 = 0.804 | 23.2 ± 1.6
393.1 K, x1 = 0.504 | 27.4 ± 1.7
393.1 K, x1 = 0.804 | 19.8 ± 1.3
398.1 K, x1 = 0.504 | 23.4 ± 1.5
398.1 K, x1 = 0.702 | 18.5 ± 1.2
398.1 K, x1 = 0.804 | 17 ± 1.1
403.1 K, x1 = 0.804 | 14.67 ± 0.89
408.1 K, x1 = 0.198 | 22.8 ± 1.3
413.1 K, x1 = 0.198 | 19.7 ± 1.2
413.1 K, x1 = 0.795 | 11.06 ± 0.62
418.1 K, x1 = 0.504 | 13.42 ± 0.72
423.1 K, x1 = 0.388 | 12.25 ± 0.67
428.1 K, x1 = 0.702 | 8.33 ± 0.4
428.1 K, x1 = 0.795 | 7.76 ± 0.37
433.1 K, x1 = 0.597 | 8.38 ± 0.38
438.1 K, x1 = 0.302 | 9.51 ± 0.43
438.1 K, x1 = 0.702 | 6.8 ± 0.29
443.1 K, x1 = 0.504 | 8.1 ± 0.5
443.1 K, x1 = 0.804 | 6.06 ± 0.24

CCS(=O)(=O)[O-].[NH4+] + CC(=O)[O-].CC[n+]1ccn(C)c1
101 kPa
Conditions | electrical conductivity [S/m] | viscosity [mPa·s]
313.15 K, x1 = 0.1701 | 0.38 ± 0.0076 | 112.1 ± 7.4
318.15 K, x1 = 0.05 | 0.649 ± 0.013 | 51.8 ± 3.4
323.15 K, x1 = 0.0999 | 0.669 ± 0.013 | 50.7 ± 3.3
323.15 K, x1 = 0.1701 | 0.588 ± 0.012 | 65.1 ± 4.2

Reference: the CheMixHub ionic liquid set
